From ChEMBL document CHEMBL4715896, “A styrylpyrone dimer isolated from Aniba heringeri causes apoptosis in MDA-MB-231 triple-negative breast cancer cells” (Bioorg Med Chem, 2021)
Each block holds one compound with its values, some of them ahead of it. The source made the active and inactive calls. The rule behind the calls is not given here.

What was measured:
[1] = tested on: MDA-MB-231; assay: Induction of apoptosis in human MDA-MB-231 cells assessed as activation of caspase-3 at 63 uM after 48 hrs by flow cytometry; format: functional, cell-based
[2] = tested on: MDA-MB-231; assay: Induction of morphological changes in human MDA-MB-231 cells assessed as cells with irregular shape at 63 uM after 72 hrs by acridine orange/ethidium bromide double staining-based fluorescence/phase contrast microscopic analysis; format: functional, cell-based
[3] = tested on: MDA-MB-231; assay: Induction of apoptosis in human MDA-MB-231 cells assessed as late apoptotic cells at 63 uM after 48 hrs by Annexin-V/7-AAD staining based flow cytometry relative to control; format: functional
[4] = tested on: MDA-MB-231; assay: Induction of apoptosis in human MDA-MB-231 cells assessed as viable cells at 63 uM after 48 hrs by Annexin-V/7-AAD staining based flow cytometry relative to control; format: functional; details: read-out: Activity
[5] = tested on: MDA-MB-231; assay: Induction of morphological changes in human MDA-MB-231 cells assessed as reduction in cell contact at 4.4 uM after 48 hrs by acridine orange/ethidium bromide double staining-based fluorescence/phase contrast microscopic analysis; format: functional
[6] = tested on: MDA-MB-231; assay: Induction of morphological changes in human MDA-MB-231 cells assessed as formation of atypical cell clusters at 4.4 uM after 72 hrs by acridine orange/ethidium bromide double staining-based fluorescence/phase contrast microscopic analysis; format: functional
[7] = tested on: MDA-MB-231; assay: Induction of apoptosis in human MDA-MB-231 cells assessed as necrotic cells at 63 uM after 72 hrs by Annexin-V/7-AAD staining based flow cytometry relative to control; format: functional
[8] = tested on: MDA-MB-231; assay: Induction of apoptosis in human MDA-MB-231 cells assessed as increase in Bax/Bcl2 gene expression at 63 uM after 48 hrs by RT-qPCR analysis; format: functional, cell-based
[9] = tested on: MDA-MB-231; assay: Induction of morphological changes in human MDA-MB-231 cells assessed as proliferation arrest at 4.4 uM after 48 hrs by acridine orange/ethidium bromide double staining-based fluorescence/phase contrast microscopic analysis; format: functional, cell-based
[10] = tested on: MDA-MB-231; assay: Induction of apoptosis in human MDA-MB-231 cells assessed as formation of apoptotic bodies after 72 hrs by Hoechst 33342 staining based analysis relative to control; format: functional
[11] = Selectivity index, ratio of GI50 for cytotoxicity against mouse NIH/3T3 cells to GI50 for human MDA-MB-231 cells; format: toxicity, cell-based; details: NIH/3T3 cells and MDA-MB-231 cells, read-out: RatioGI50
[12] = tested on: MDA-MB-231; assay: Induction of apoptosis in human MDA-MB-231 cells assessed as increase in Bax gene expression at 63 uM after 48 hrs by RT-qPCR analysis; format: functional, cell-based
[13] = tested on: MDA-MB-231; assay: Growth inhibition of human MDA-MB-231 cells incubated for 48 hrs by sulforhodamine B assay; format: functional
[14] = tested on: PC-3; assay: Growth inhibition of human PC3 cells incubated for 48 hrs by sulforhodamine B assay; format: functional
[15] = Selectivity index, ratio of GI50 for cytotoxicity against mouse NIH/3T3 cells to GI50 for human MCF7 cells; format: toxicity, cell-based; details: NIH/3T3 cells and MCF7 cells, read-out: RatioGI50
[16] = tested on: MDA-MB-231; assay: Induction of morphological changes in human MDA-MB-231 cells assessed as reduction in number of cells at 63 uM after 48 hrs by acridine orange/ethidium bromide double staining-based fluorescence/phase contrast microscopic analysis; format: functional, cell-based
[17] = tested on: MDA-MB-231; assay: Induction of morphological changes in human MDA-MB-231 cells assessed as loss of cell adhesion at 63 uM after 72 hrs by acridine orange/ethidium bromide double staining-based fluorescence/phase contrast microscopic analysis; format: functional
[18] = tested on: MDA-MB-231; assay: Induction of apoptosis in human MDA-MB-231 cells assessed as effect on BIRC5 mRNA expression at 63 uM after 48 hrs by RT-qPCR analysis; format: functional, cell-based
[19] = Selectivity index, ratio of GI50 for cytotoxicity against mouse NIH/3T3 cells to GI50 for human HT-29 cells; format: toxicity, cell-based; details: NIH/3T3 cells and HT-29 cells, read-out: RatioGI50
[20] = tested on: MDA-MB-231; assay: Induction of apoptosis in human MDA-MB-231 cells assessed as chromatin condensation at 63 uM after 72 hrs by acridine orange/ethidium bromide double staining-based fluorescence/phase contrast microscopic analysis; format: functional, cell-based
[21] = tested on: MDA-MB-231; assay: Induction of morphological changes in human MDA-MB-231 cells assessed as reduction in cytoplasmic extension at 4.4 uM after 48 hrs by acridine orange/ethidium bromide double staining-based fluorescence/phase contrast microscopic analysis; format: functional, cell-based
[22] = Selectivity index, ratio of GI50 for cytotoxicity against mouse NIH/3T3 cells to GI50 for human PC3 cells; format: toxicity, cell-based; details: NIH/3T3 cells and PC3 cells, read-out: RatioGI50
[23] = tested on: MDA-MB-231; assay: Induction of apoptosis in human MDA-MB-231 cells assessed as apoptotic cells at 63 uM after 72 hrs by Annexin-V/7-AAD staining based flow cytometry relative to control; format: functional
[24] = tested on: MDA-MB-231; assay: Induction of morphological changes in human MDA-MB-231 cells assessed as loss of elongated spindle morphology at 4.4 uM after 48 hrs by acridine orange/ethidium bromide double staining-based fluorescence/phase contrast microscopic analysis; format: functional, cell-based
[25] = tested on: MCF7; assay: Growth inhibition of human MCF7 cells incubated for 48 hrs by sulforhodamine B assay; format: functional
[26] = tested on: MDA-MB-231; assay: Induction of morphological changes in human MDA-MB-231 cells assessed as formation of coarse clusters at 4.4 uM after 72 hrs by acridine orange/ethidium bromide double staining-based fluorescence/phase contrast microscopic analysis; format: functional, cell-based
[27] = tested on: MDA-MB-231; assay: Induction of apoptosis in human MDA-MB-231 cells assessed as viable cells at 63 uM after 72 hrs by Annexin-V/7-AAD staining based flow cytometry relative to control; format: functional; details: read-out: Activity
[28] = tested on: 786-0; assay: Growth inhibition of human 786-0 cells incubated for 48 hrs by sulforhodamine B assay; format: functional
[29] = tested on: MDA-MB-231; assay: Induction of apoptosis in human MDA-MB-231 cells assessed as formation of apoptotic bodies after 48 hrs by Hoechst 33342 staining based analysis relative to control; format: functional
[30] = tested on: MDA-MB-231; assay: Induction of apoptosis in human MDA-MB-231 cells assessed as nuclei fragmentation at 63 uM after 48 hrs by acridine orange/ethidium bromide double staining-based fluorescence/phase contrast microscopic analysis; format: functional, cell-based
[31] = tested on: MDA-MB-231; assay: Induction of apoptosis in human MDA-MB-231 cells assessed as necrotic cells at 63 uM after 48 hrs by Annexin-V/7-AAD staining based flow cytometry relative to control; format: functional
[32] = tested on: MDA-MB-231; assay: Induction of apoptosis in human MDA-MB-231 cells assessed as activation of caspase-3 at 63 uM after 72 hrs by flow cytometry relative to untreated control; format: functional
[33] = tested on: MDA-MB-231; assay: Induction of apoptosis in human MDA-MB-231 cells assessed as appearance of apoptotic bodies at 63 uM after 72 hrs by acridine orange/ethidium bromide double staining-based fluorescence/phase contrast microscopic analysis; format: functional, cell-based
[34] = Cytotoxicity against mouse NIH/3T3 cells assessed as growth inhibition after 48 hrs by SRB assay; format: cell-based, NIH3T3
[35] = tested on: MDA-MB-231; assay: Induction of apoptosis in human MDA-MB-231 cells assessed as nuclei fragmentation at 63 uM after 72 hrs by acridine orange/ethidium bromide double staining-based fluorescence/phase contrast microscopic analysis; format: functional, cell-based
[36] = tested on: MDA-MB-231; assay: Induction of apoptosis in human MDA-MB-231 cells assessed as appearance of apoptotic bodies at 63 uM after 48 hrs by acridine orange/ethidium bromide double staining-based fluorescence/phase contrast microscopic analysis; format: functional, cell-based
[37] = tested on: MDA-MB-231; assay: Induction of morphological changes in human MDA-MB-231 cells assessed as loss of cell cell interaction at 63 uM after 72 hrs by acridine orange/ethidium bromide double staining-based fluorescence/phase contrast microscopic analysis; format: functional
[38] = Selectivity index, ratio of GI50 for cytotoxicity against mouse NIH/3T3 cells to GI50 for human 786-0 cells
[39] = tested on: MDA-MB-231; assay: Induction of apoptosis in human MDA-MB-231 cells assessed as reduction in bcl2 gene expression at 63 uM after 48 hrs by RT-qPCR analysis; format: functional, cell-based
[40] = tested on: HT-29; assay: Growth inhibition of human HT-29 cells incubated for 48 hrs by sulforhodamine B assay; format: functional
[41] = tested on: MDA-MB-231; assay: Induction of apoptosis in human MDA-MB-231 cells assessed as apoptotic cells at 63 uM after 48 hrs by Annexin-V/7-AAD staining based flow cytometry relative to control; format: functional
[42] = tested on: MDA-MB-231; assay: Induction of morphological changes in human MDA-MB-231 cells assessed as reduction in number of cells at 63 uM after 72 hrs by acridine orange/ethidium bromide double staining-based fluorescence/phase contrast microscopic analysis; format: functional, cell-based
[43] = tested on: MDA-MB-231; assay: Induction of apoptosis in human MDA-MB-231 cells assessed as chromatin condensation at 63 uM after 48 hrs by acridine orange/ethidium bromide double staining-based fluorescence/phase contrast microscopic analysis; format: functional, cell-based
[44] = tested on: MDA-MB-231; assay: Induction of apoptosis in human MDA-MB-231 cells assessed as late apoptotic cells at 63 uM after 72 hrs by Annexin-V/7-AAD staining based flow cytometry relative to control; format: functional

GI50 [13]: 4.42 µM
GI50 [14]: 69.5 µM
GI50 [25]: 50.2 µM
GI50 [28]: 61.7 µM
GI50 [40]: 69.7 µM
Structure (SMILES): O=C1C=C[C@@H]2[C@H](c3ccccc3)[C@@H](c3cccc(=O)o3)[C@]2(/C=C/c2ccccc2)O1
Activity [1]: Active
Activity [2]: Active
Activity [3]: 13%
viability at 63 µM [4]: 28.4%
Activity [5]: Active
Activity [6]: Active
Activity [7]: 5%
Activity [8]: Active
Activity [9]: Active
Activity [10]: 33%
selectivity ratio at 48 h [11]: 35.7
Activity [12]: Active
selectivity ratio at 48 h [15]: 3.14
Activity [16]: Active
Activity [17]: Active
Activity [18]: Active
selectivity ratio [19]: 2.26
Activity [20]: Active
Activity [21]: Active
selectivity ratio [22]: 2.27
Activity [23]: 11%
Activity [24]: Active
Activity [26]: Active
viability at 63 µM [27]: 50%
Activity [29]: 56%
Activity [30]: Active
Activity [31]: 2%
fold change (FC) [32]: 4
Activity [33]: Active
GI50 at 48 h [34]: 158 µM
Activity [35]: Active
Activity [36]: Active
Activity [37]: Active
RatioGI50 [38]: 2.55
Activity [39]: inactive
Activity [41]: 17%
Activity [42]: Active
Activity [43]: Active
Activity [44]: 37%

GI50 [13]: 34.2 µM
GI50 [14]: 96.3 µM
GI50 [25]: 12.2 µM
GI50 [28]: 567 µM
GI50 [40]: 88.7 µM
Structure (SMILES): O=c1cccc([C@H]2[C@H](c3ccccc3)[C@H](c3cccc(=O)o3)[C@H]2c2ccccc2)o1
selectivity ratio at 48 h [11]: 14.7
selectivity ratio at 48 h [15]: 41.1
selectivity ratio [19]: 5.67
selectivity ratio [22]: 5.22
GI50 at 48 h [34]: 503 µM
RatioGI50 [38]: 0.88

GI50 [13]: 98 µM
GI50 [14]: 90.4 µM
GI50 [25]: 107 µM
GI50 [28]: 176 µM
GI50 [40]: 145 µM
Structure (SMILES): O=c1cccc(/C=C/c2ccccc2)o1
selectivity ratio at 48 h [11]: 12.9
selectivity ratio at 48 h [15]: 11.8
selectivity ratio [19]: 8.73
selectivity ratio [22]: 14
GI50 at 48 h [34]: 1270 µM
RatioGI50 [38]: 7.24

GI50 [13]: 1.84 µM
GI50 [14]: 0.24 µM
GI50 [25]: 0.25 µM
GI50 [28]: 0.16 µM
GI50 [40]: 0.28 µM
Structure (SMILES): COc1cccc2c1C(=O)c1c(O)c3c(c(O)c1C2=O)C[C@@](O)(C(=O)CO)C[C@@H]3O[C@H]1C[C@H](N)[C@H](O)[C@H](C)O1 [DOXORUBICIN]
GI50 at 48 h [34]: 0.28 µM
